The values below come from patent US9073855B2, “BCL-2 selective apoptosis-inducing agents for the treatment of cancer and immune diseases” (AbbVie Inc., priority 2008, dated 2015).

Test [1] has as its target GST-Bcl-2 (Homo sapiens, UniProt P10415). Nature of the test: TR-FRET binding assay, GST-Bcl-2 with F-Bak peptide probe. The following applies: TR-FRET Binding Affinity, GST-Bcl-2, F-Bak peptide probe. The method in brief: (§1)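 Ki was derived with Wang's equation for competitive binding of two ligands. The read-out was time-resolved fluorescence after a 3 h room-temperature incubation, using a Tb-labelled antibody donor and the F-Bak peptide acceptor (excitation 340/35 nm). Test compounds entered as DMSO serial dilutions starting at 50 μM, which was the 2× concentration.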
A general note: TR-FRET usually uses a lanthanide donor and a delayed reading to cut background.

For test [2], the system named is FL5.12/Bcl-2 cells. Nature of the test: FL5.12/Bcl-2 cell viability assay under IL-3 withdrawal (CellTitre Glo). The following applies: Mus musculus, IL-3 withdrawn 48 hrs, then 24 hrs with compound. Type of test: cell-based, murine. The method in brief: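 Viability measured by CellTitre Glo after FL5.12/Bcl-2 murine cells, starved of IL-3 for 48 hrs, were treated with compounds for another 24 hrs. Killing reflects inhibition of Bcl-2 sequestration of Bim and Puma.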

Test [3] addresses GST-Bcl-XL (Homo sapiens, UniProt Q07817). Briefly: TR-FRET binding assay, GST-Bcl-XL with F-Bak peptide probe. The following applies: TR-FRET Binding Affinity, GST-Bcl-XL, F-Bak peptide probe. The method in brief: as §1

Bounds are passed on as bounds.

Sequence of GST-Bcl-XL (Q07817 whole entry): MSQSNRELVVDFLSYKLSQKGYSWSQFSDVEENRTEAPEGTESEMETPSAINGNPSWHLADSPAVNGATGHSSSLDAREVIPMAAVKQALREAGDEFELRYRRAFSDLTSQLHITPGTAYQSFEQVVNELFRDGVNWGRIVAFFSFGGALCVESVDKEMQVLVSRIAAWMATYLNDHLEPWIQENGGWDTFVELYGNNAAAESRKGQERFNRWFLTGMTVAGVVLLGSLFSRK
Sequence of GST-Bcl-2 (P10415 whole entry): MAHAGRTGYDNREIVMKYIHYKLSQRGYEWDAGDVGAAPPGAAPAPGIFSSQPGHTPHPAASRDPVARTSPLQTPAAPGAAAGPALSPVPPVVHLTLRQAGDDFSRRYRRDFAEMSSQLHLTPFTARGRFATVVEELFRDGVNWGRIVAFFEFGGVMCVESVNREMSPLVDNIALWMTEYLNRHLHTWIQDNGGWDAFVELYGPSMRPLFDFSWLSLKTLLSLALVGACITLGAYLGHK

Turning to `O=C(NS(=O)(=O)c1ccc(NCC2CCOCC2)c([N+](=O)[O-])c1)c1ccc(N2CCN(CC3=C(c4ccc(Cl)cc4)CCC(N4CCOCC4)C3)CC2)cc1Oc1ccc2[nH]ccc2c1` (stereo not drawn) [Example 249, 4-(4-{[2-(4-chlorophenyl)-5-morpholin-4-ylcyclohex-1-en-1-yl]methyl}piperazin-1-yl)-2-(1H-indol-5-yloxy)-N-({3-nitro-4-[(tetrahydro-2H-pyran-4-ylmethyl)amino]phenyl}sulfonyl)benzamide], the inhibitory constant (Ki) in test [1] is 0.09 nM; in test [3] it was more than 660 nM. Besides, the concentration for a half-maximal effect (EC50) in test [2] is 41.2 nM.

As for `CC1(C)CCC(CN2CCN(c3ccc(C(=O)NS(=O)(=O)c4ccc(NCC5(N)CCCCC5)c([N+](=O)[O-])c4)c(Oc4ccc5[nH]ccc5c4)c3)CC2)=C(c2ccc(Cl)cc2)C1` [Example 250, N-[(4-{[(1-aminocyclohexyl)methyl]amino}-3-nitrophenyl)sulfonyl]-4-(4-{[2-(4-chlorophenyl)-4,4-dimethylcyclohex-1-en-1-yl]methyl}piperazin-1-yl)-2-(1H-indol-5-yloxy)benzamide], the results for the inhibition constant (Ki) in test [1] and in test [3] were 0.266 nM and 215 nM, respectively. Moreover, the half-maximal effective concentration (EC50) in test [2] worked out at 79.5 nM.

Consider `CC1(C)CCC(CN2CCN(c3ccc(C(=O)NS(=O)(=O)c4ccc(NCCN5CCCC5=O)c([N+](=O)[O-])c4)c(Oc4ccc5[nH]ccc5c4)c3)CC2)=C(c2ccc(Cl)cc2)C1` [Example 251, 4-(4-{[2-(4-chlorophenyl)-4,4-dimethylcyclohex-1-en-1-yl]methyl}piperazin-1-yl)-2-(1H-indol-5-yloxy)-N-[(3-nitro-4-{[2-(2-oxopyrrolidin-1-yl)ethyl]amino}phenyl)sulfonyl]benzamide], for which the values for the inhibition constant Ki in test [1] and in test [3] were 0.328 nM and 472 nM, respectively. In addition, in test [2], the concentration giving a half-maximal response (EC50) amounted to 78.1 nM.

As to `CC(c1ccccc1-c1ccc(Cl)cc1)N1CCN(c2ccc(C(=O)NS(=O)(=O)c3ccc(NCC4CCOCC4)c([N+](=O)[O-])c3)c(Oc3ccc4[nH]ccc4c3)c2)CC1` (stereo not drawn) [Example 252, 4-{4-[1-(4′-chloro-1,1′-biphenyl-2-yl)ethyl]piperazin-1-yl}-2-(1H-indol-5-yloxy)-N-({3-nitro-4-[(tetrahydro-2H-pyran-4-ylmethyl)amino]phenyl}sulfonyl)benzamide], the Ki in test [1] is 0.077 nM; in test [3] it was more than 660 nM. Also, the half-maximal effective concentration (EC50) in test [2] worked out at 6.62 nM.

Take `CC(C1=C(c2ccc(Cl)cc2)CC(C)(C)CC1)N1CCN(c2ccc(C(=O)NS(=O)(=O)c3ccc(NCC4CCOCC4)c([N+](=O)[O-])c3)c(Oc3ccc4[nH]ccc4c3)c2)CC1` (stereo not drawn) [Example 253, 4-(4-{1-[2-(4-chlorophenyl)-4,4-dimethylcyclohex-1-en-1-yl]ethyl}piperazin-1-yl)-2-(1H-indol-5-yloxy)-N-({3-nitro-4-[(tetrahydro-2H-pyran-4-ylmethyl)amino]phenyl}sulfonyl)benzamide]: the Ki in test [1] is 0.142 nM; in test [3], more than 660 nM. In addition, the EC50 in test [2] worked out at 7.58 nM.

As to `CC(C1=C(c2ccc(Cl)cc2)CC(C)(C)CC1)N1CCN(c2ccc(C(=O)NS(=O)(=O)c3ccc(NN4CCN(C)CC4)c([N+](=O)[O-])c3)c(Oc3ccc4[nH]ccc4c3)c2)CC1` (stereo not drawn) [Example 254, 4-(4-{1-[2-(4-chlorophenyl)-4,4-dimethylcyclohex-1-en-1-yl]ethyl}piperazin-1-yl)-2-(1H-indol-5-yloxy)-N-({4-[(4-methylpiperazin-1-yl)amino]-3-nitrophenyl}sulfonyl)benzamide], the Ki turned out to be 0.126 nM in test [1] and 53.3 nM in test [3]. Besides, the EC50 in test [2] was determined as 16.9 nM.

Take `C[C@H](c1ccccc1-c1ccc(Cl)cc1)N1CCN(c2ccc(C(=O)NS(=O)(=O)c3ccc(NCC4CCOCC4)c([N+](=O)[O-])c3)c(Oc3cccc4[nH]ccc34)c2)CC1` [Example 255, 4-{4-[(1R)-1-(4′-chloro-1,1′-biphenyl-2-yl)ethyl]piperazin-1-yl}-2-(1H-indol-4-yloxy)-N-({3-nitro-4-[(tetrahydro-2H-pyran-4-ylmethyl)amino]phenyl}sulfonyl)benzamide]: the inhibitory constant (Ki) in test [1] was 7.83 nM; in test [3], more than 660 nM. Moreover, the EC50 in test [2] was more than 500 nM.

The Ki is a dissociation constant, usually derived from enzyme kinetics or from competition with a known ligand. A lower Ki goes with a stronger hold on the target. As usually defined, the EC50 is the midpoint of the concentration-response curve.
